Here are results for 1 substance from patent US3931147A, “Water-soluble derivatives of sodium mannoheptonate” (International Telephone and Telegraph Corporation, priority 1973, dated 1976).

This experiment can be described thus: Swelling of clay in water: viscosity and gel strength of sodium bentonite dispersion. Conditions: in words. On the procedure: Additional tests were conducted to determine the utility of the metal complexes of the invention on the swelling of clay in water. 6 grams of the product were dissolved in 300 ml. of distilled water, and the pH of the solution was adjusted to 10.5 with sodium hydroxide. 30 grams of sodium bentonite were then added and the mixture was bottled and rolled 16 hours at 70°C. Viscosity and gel strengths were then determined using a Fann model 35 viscometer. Lowered viscosity and gels indicate decreased swelling and viscosity building.

As to aluminum, the “inhibiting the swelling of bentonite clays” value was “most effective”.
